Bounds are passed on as bounds.

Usually EC50 stands for the concentration at which the effect is half-maximal.

One assay relates to Pythium ultimum. In words: Amended agar assay (potato dextrose agar), reduction in colony growth. In kind it is cell-based. Particulars: Globisporangium ultimum; for EC50: descending test concentrations, 5-fold dilutions typically down to 0.032 ppm, read-out: Pythium ultimum (EC50); for inhibition of growth at 20 ppm: Pythium ultimum, primary screen at 20 ppm, read-out: % control at 20 ppm.

The next assay deals with Phytophthora cinnamomi. Described as above. It counts as cell-based. To be noted: for EC50: descending test concentrations, 5-fold dilutions typically down to 0.032 ppm, read-out: Phytophthora cinnamomi (EC50).

As to `Cc1nccnc1-n1c(OCc2cccc(NC(=O)C(F)(F)Oc3ccccc3)n2)nc2ccccc21` [Example 56], the concentration giving a half-maximal response (EC50) in the assay with Pythium ultimum was less than 2 µg/mL; in the assay on Phytophthora cinnamomi, 2 to 20 µg/mL.

Regarding `Cn1ccnc1-n1c(OCc2cccc(NC(=O)OC(C)(C)C)n2)nc2ccccc21` [Example 57], the 50% effective concentration (EC50) with Pythium ultimum and in the assay on Phytophthora cinnamomi was less than 2 µg/mL throughout.

Turning to `Cn1nnnc1-n1c(OCc2cccc(NC(=O)OC(C)(C)C)n2)nc2c(F)cc(F)cc21` [Example 58], the EC50 in the assay on Pythium ultimum and in the assay on Phytophthora cinnamomi was less than 2 µg/mL in each case.

For the molecule `Cc1nccnc1-n1c(OCc2cccc(NC(=O)OC(C)(C)C)n2)nc2ccccc21` [Example 59], the concentration for a half-maximal effect (EC50) with Pythium ultimum and in the assay with Phytophthora cinnamomi was more than 20 µg/mL in each case.

Turning to `Cn1nnnc1-n1c(OCc2cccc(NC(=O)C(F)(F)Oc3ccccc3)n2)nc2ccc(C#N)cc21` [Example 60], the concentration for a half-maximal effect (EC50) with Pythium ultimum and with Phytophthora cinnamomi was less than 2 µg/mL throughout.

As to `Cn1nnnc1-n1c(OCc2cccc(NC(=O)C(F)(F)Oc3ccccc3)n2)nc2cc(C#N)ccc21` [Example 61], the EC50 in the assay with Pythium ultimum and in the assay with Phytophthora cinnamomi was less than 2 µg/mL each time.

Regarding `O=C(Nc1cccc(COc2nc3ccccc3n2-c2ncccc2Br)n1)C(F)(F)Oc1ccccc1` [Example 62], the inhibition of growth at 20 ppm in the assay with Pythium ultimum is less than 50%; in the assay on Phytophthora cinnamomi (primary screen at 20 ppm, read-out: % control at 20 ppm) it was less than 50%.

Regarding `O=C(Nc1cccc(COc2nc3ccccc3n2-c2ncccc2Cl)n1)C(F)(F)Oc1ccccc1` [Example 63], the EC50 in the assay on Pythium ultimum and in the assay with Phytophthora cinnamomi was 2 to 20 µg/mL throughout.

In the case of `O=C(Nc1cccc(COc2nc3ccccc3n2-c2ncncc2Cl)n1)C(F)(F)Oc1ccccc1` [Example 64], the inhibition of growth at 20 ppm with Pythium ultimum is more than 99%. Further, the half-maximal effective concentration (EC50) with Phytophthora cinnamomi is less than 2 µg/mL.

Consider `Cc1cccnc1-n1c(OCc2cccc(NC(=O)C(F)(F)Oc3ccccc3)n2)nc2ncccc21` [Example 66], for which, in the assay on Pythium ultimum, the inhibition of growth at 20 ppm lay in the range of 50 to 99%. Further, in the assay with Phytophthora cinnamomi, the EC50 is more than 20 µg/mL.

On to `O=C(Nc1cccc(COc2[nH]c3ccccc3c2-c2ncncc2Cl)n1)C(F)(F)Oc1ccccc1` [Example 69, N-(6-(((3-(5-Chloropyrimidin-4-yl)-1H-indol-2-yl)oxy)methyl)pyridin-2-yl)-2,2-difluoro-2-phenoxyacetamide], for which the EC50 with Pythium ultimum and in the assay on Phytophthora cinnamomi was more than 20 µg/mL each time.
